Format in all cases: in vivo
The subject of test [1] is adult, Pyrethroid-susceptible horn fly (Haematobia irritans). Description: Adult pyrethroid-susceptible horn fly, treated filter paper (Table III). The note with it: topical, 6 h, read-out: 6 Hour % Mortality. As for the experimental part: Test doses are expressed as μg of test substance per cm^2 of filter paper.
1) Prepare solutions of test compound in acetone such that 800 or 1000 μL contains the amount necessary to obtain the desired dose rate.
2) Pipette 800 or 1000 μL of test solution onto filter paper.
3) Filter papers are dried under a fume hood.
4) When dry, filter papers are placed in the petri dish tops. Dishes are generally held about 24 hours before test organism is added.
5) Two- to five-day-old horn flies (pyrethroid-susceptible or -resistant) which have had two or more blood meals are used in the assay. Flies are collected into a small vial from the holding cage. Vials are then chilled in a freezer for about 4 minutes to immobilize the flies. Immobilized flies are then distributed to petri dish bottoms, 12 to 25 flies per dish, then dishes are closed and inverted.
6) As soon as the flies become mobile (about 5 minutes), they are examined to detect any flies that are dead or injured. This number is subtracted from total number of flies in the dish.
7) Petri dishes are held at room temperature and examined at the desired time intervals which might be 10 minutes to 6 hours.
8) All dead flies are recorded at each examination time. A fly is considered dead if it cannot walk even though it may still be moving.
10) Percent mortality at any time period is calculated using the following formula: […]
Number of dead flies-number dead @5 min/Total number of flies-number dead
Percent mortality is then corrected for control mortality using Abbot's formula.

Test [2] deals with Dermacentor variabilis (American dog tick). Description: Contact activity against the larval American dog tick (Table II). To be noted: topical. As for the experimental part: This test is designed to evaluate the contact activity of test compounds against the American dog tick. Test compounds are dissolved in 100% acetone to 1000, 300, 100, 10, 1 and 0.1 ppm. 100 μL of each of these dilutions is added to the bottom of a 20 mL glass scintillation vial with a pipettor. The vial is allowed to dry under a fume hood for 15 minutes. The vial is then turned in its side, and 250 μL of each dilution is applied to the sides of the vial. The vial is placed on a rolling machine and allowed to roll under the hood, coating the sides of the vial, until the acetone completely evaporates. The bottom of the vial measures 4.909 cm^2 and the sides measure 4.5 cm high×8.8 cm around, so that the total coated area of the scintillation vial measures 44.51 cm^2. The amount of test compound applied by each dilution equals 7.86, 2.36, 0.79, 0.079, 0.0079 and 0.00079 μg/cm^2, respectively. Unfed larval dog ticks are counted into the scintillation vials with a slightly damp paintbrush. Ten ticks are placed in each vial. These tests are done in replicates of two or three so that there are 20 to 30 ticks per rate/compound. Mortality readings are taken 4 and 24 hours after placing the ticks in the vials. To read the test, the vial is placed under a magnifying glass and tapped gently. […] Percent mortality is then calculated for each treatment.

The test system of test [3] is Ctenocephalides felis (cat flea). Description: Contact activity against the adult cat flea (Table I). The note with it: topical. As for the experimental part:
This test is designed to evaluate the contact activity of test compounds against the adult cat flea. Test compounds are dissolved in 100% acetone to 300, 100, 10 and 1 ppm. 100 μL of each of these dilutions is added to the bottom of a 20 mL glass scintillation vial with a pipettor. The vial is allowed to dry under a fume hood for 15 minutes. The bottom of the vial measures 4.909 cm^2. The amount of test compound applied by each dilution equals 6.2, 2.0, 0.2 and 0.02 μg/cm^2, respectively. Newly emerged adult cat fleas are anesthetized with CO2 to immobilize, and are counted into the scintillation vials with forceps. Five fleas are placed in each vial. These tests are done in replicates of two or three so that there are 10 to 15 fleas per rate/compound. Mortality readings are taken 4 and 24 hours after placing the fleas in the vials. […] Percent mortality is then calculated for each treatment.

Test [4] has as its system Musca domestica (house fly). Description: Activity against the adult house fly (Table V). As for the experimental part:
This test is designed to evaluate the activity of test compounds against the house fly. Test compounds are dissolved in 100% acetone to 1000, 300, 100, 10 and 1 ppm. 100 μL of each of these dilutions is added to the bottom of a 20 mL glass scintillation vial with a pipettor. The vial is allowed to dry under a fume hood for 15 minutes. The vial is then turned on its side, and 250 μL of each dilution is applied to the sides of the vial. The vial is placed on a rolling machine and allowed to roll under the hood, coating the sides of the vial, until the acetone completely evaporates. The bottom of the vial measures 4.909 cm^2 and the sides measure 4.5 cm high×8.8 cm around, so that the total coated area of the scintillation vial measures 44.51 cm^2. The amount of test compound applied by each dilution equals 7.86, 2.36, 0.79, 0.079, and 0.0079 μg/cm^2, respectively. Included in all tests are two to three replications of untreated vials. Adult house flies which are five to seven days old are chilled in a freezer for five minutes to immobilize, and are placed on a sorting platform which provides a steady stream of CO2 to keep the flies immobile. Five flies are counted into each scintillation vial with forceps. The top of the vial is plugged with a wad of sheet cotton sufficient to contain the flies. These tests are done in replicates of two to four so that there are 10 to 20 flies per rate/compound. Mortality readings are taken 1 and 4 hours after placing the flies in the vials. Flies which are unable to stand when disturbed are considered dead. Percent mortality is then calculated for each treatment.

[5] abbreviates: 4 hours, dose 0.790 μg/cm^2, read-out: 4 Hour % Mortality.
The mark [6] stands for this setting: 4 h, read-out: 4 Hour % Mortality.
Where [7] appears, read: 24 h, read-out: 24 Hour % Mortality.
The mark [8] stands for this setting: 1 h, read-out: 1 Hour % Mortality.

Where two headings read alike, the source gives them in different places.

As a reminder, the mortality is the share of the test organisms that died.

On to `F/C(=C\Cc1ccc(F)c(Oc2ccc(F)cc2)c1)C(c1ccc(Cl)cc1)C1CC1` (racemic) [Compound 18], for which, in test [1], the mortality at 0.625 µg/cm2 came to 4%, the mortality at 1.25 µg/cm2 came to 36%, the mortality at 2.5 µg/cm2 is 94% and the mortality at 5 µg/cm2 worked out at 99%. Also, the mortality at 10 µg/cm2 in test [1] was 100%.

On to `CCOc1ccc(C(/C(F)=C/Cc2ccc(F)c(Oc3ccccc3)c2)C2CC2)cc1` (stereo not drawn) [Compound 10, 1-[1-(p-Ethoxyphenyl)-2-fluoro-4-(4-fluoro-3-phenoxyphenyl)-2-butenyl]cyclopropane, (Z)-], for which the mortality at 0.079 µg/cm2 in test [2] (4 hours, dose 0.079 μg/cm^2, read-out: 4 Hour % Mortality) is 100%; in test [2] (24 hours, dose 0.079 μg/cm^2, read-out: 24 Hour % Mortality), 100%; in test [4] (setting [8]), 20%; in test [4] (setting [6]) it was 60%. In addition, the mortality at 0.79 µg/cm2 in test [2] (setting [5]) turned out to be 100%; in test [2] (24 hours, dose 0.790 μg/cm^2, read-out: 24 Hour % Mortality), 100%; in test [4] (setting [8]), 20%; in test [4] (setting [5]), 75%. Also, the mortality at 2.36 µg/cm2 in test [2] (4 hours, dose 2.360 μg/cm^2, read-out: 4 Hour % Mortality) is 100%; in test [2] (24 hours, dose 2.360 μg/cm^2, read-out: 24 Hour % Mortality), 100%; in test [4] (setting [8]) it was 40%; in test [4] (setting [6]) it was 100%. For the same molecule, the mortality at 7.86 µg/cm2 in test [2] (4 hours, dose 7.860 μg/cm^2, read-out: 4 Hour % Mortality) is 100%; in test [2] (24 hours, dose 7.860 μg/cm^2, read-out: 24 Hour % Mortality), 100%. Besides, the mortality at 0.02 µg/cm2 in test [3] (setting [6]) stood at 10%; in test [3] (setting [7]), 20%. Further, the mortality at 0.2 µg/cm2 in test [3] (setting [6]) came out at 68%; in test [3] (setting [7]) it was 95%. Further, the mortality at 2 µg/cm2 came out at 70% in test [3] (setting [6]) and 100% in test [3] (setting [7]). The mortality at 6.2 µg/cm2 in test [3] (setting [6]) and in test [3] (setting [7]) was 100% each time.

On to `CCOc1ccc(C(/C(F)=C/Cc2cccc(Oc3ccc(F)cc3)c2)C(C)C)cc1` (stereo not drawn) [Compound 12, 4-(p-Ethoxyphenyl)-3-fluoro-1-[m-(p-fluorophenoxy)phenyl]-5-methyl-2-hexene, (Z)-], for which, in test [3] (setting [6]), the mortality at 0.02 µg/cm2 was determined as 0%, the mortality at 0.2 µg/cm2 is 0%, the mortality at 2 µg/cm2 worked out at 10% and the mortality at 6.2 µg/cm2 was determined as 33%. In test [3] (setting [7]), the mortality at 0.02 µg/cm2 was determined as 0%, the mortality at 0.2 µg/cm2 is 10%, the mortality at 2 µg/cm2 came to 30% and the mortality at 6.2 µg/cm2 came out at 78%.

Consider `F/C(=C\Cc1cccc(Oc2ccc(F)cc2)c1)C(c1ccc(Cl)cc1)C1CC1` (stereo not drawn) [Compound 13, 1-{1-(p-Chlorophenyl)-2-fluoro-4-[m-(p-fluorophenoxy)phenyl]-2-butenyl}cyclopropane, (Z)-], for which, in test [3] (setting [6]), the mortality at 0.02 µg/cm2 amounted to 0%, the mortality at 0.2 µg/cm2 came to 0%, the mortality at 2 µg/cm2 came out at 5% and the mortality at 6.2 µg/cm2 was 10%. Moreover, in test [3] (setting [7]), the mortality at 0.02 µg/cm2 is 5%, the mortality at 0.2 µg/cm2 was determined as 33%, the mortality at 2 µg/cm2 came out at 67% and the mortality at 6.2 µg/cm2 was found to be 95%.

With `CC(C)C(/C(F)=C(\F)Cc1ccc(F)c(Oc2ccccc2)c1)c1ccc(OC(F)(F)F)cc1` (stereo not drawn) [Compound 17, 2,3-Difluoro-1-(4-fluoro-3-phenoxyphenyl)-5-methyl-4-[p-(trifluoromethoxy)phenyl]-2-hexene, (E)-], in test [3] (setting [6]), the mortality at 0.02 µg/cm2 was 0%, the mortality at 0.2 µg/cm2 came out at 10%, the mortality at 2 µg/cm2 was 10% and the mortality at 6.2 µg/cm2 was found to be 10%. In addition, in test [3] (setting [7]), the mortality at 0.02 µg/cm2 came to 20%, the mortality at 0.2 µg/cm2 worked out at 40%, the mortality at 2 µg/cm2 turned out to be 50% and the mortality at 6.2 µg/cm2 came to 90%.
